Earlier results in patent US20170217996A1, “Large-scale diastereoselective syntheses of cycloheptadienylsulfones and stereotetrads” (Purdue Research Foundation, priority 2014, published 2017).

How the values were obtained:
actin = conditions: in vitro
tubulin = conditions: in association with actin
Lewis lung = conditions: mice
P388 leukemia = conditions: mice
Ehrlich carcinoma = conditions: mice
Colon 26 carcinoma = conditions: mice
B16 melanoma = conditions: mice

SMILES: COCC(C(=O)O[C@@H]1C/C=C/C=C/C(=O)O[C@H]([C@@H](C)[C@@H](O)[C@@H](C)CC[C@@H](OC(=O)C(C)N(C)C)[C@H](C)[C@H](OC(C)=O)[C@H](C)/C=C/N(C)C=O)C/C=C/[C@H](OC)C[C@H](C)C/C=C(\C)[C@@H](OC)CC[C@@H](C)[C@@H](O)[C@@H]1C)N(C)C (stereo partly drawn) [ApA, Aplyronine A]
- inhibition of actin polymerization (actin): inhibit actin polymerization in vitro to the same extent
- inhibition of tubulin polymerization (tubulin): inhibits tubulin polymerization
- complex with actin and tubulin (actin and tubulin): 1:1:1 heterotrimeric complex
- concentration that inhibits spindle formation and mitosis (HeLa S3 cells): 100 pM
- increase of lifespan (Lewis lung): 566%
- increase of lifespan (P388 leukemia): 545%
- increase of lifespan (Ehrlich carcinoma): 398%
- increase of lifespan (Colon 26 carcinoma): 255%
- increase of lifespan (B16 melanoma): 201%
